# Assay results taken from PubChem BioAssay (NCI).
#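 Step 1: Grow cells in 96-well plates. Step 2: Expose to compound for 48 hours at 5 concentrations. Step 3: Interpolate endpoints linearly; if unreached, use highest concentration. At the GI50, growth is halved. At the TGI there is no net growth.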
# Assays:
# Assay in all cases: NCI tumour cell line growth inhibition, 48 h
# KM12 colon = test system: KM12 colon
# UACC-257 melanoma = test system: UACC-257 melanoma
# U251 CNS = test system: U251 CNS
# M14 melanoma = test system: M14 melanoma
# OVCAR-5 ovarian = test system: OVCAR-5 ovarian
# MALME-3M melanoma = test system: MALME-3M melanoma
# RPMI-8226 leukemia = test system: RPMI-8226 leukemia
# MDA-MB-231 breast = test system: MDA-MB-231 breast
# SF-539 CNS = test system: SF-539 CNS
# SK-MEL-28 melanoma = test system: SK-MEL-28 melanoma
# NCI-H460 lung = test system: NCI-H460 lung
# IGROV1 ovarian = test system: IGROV1 ovarian
# SK-OV-3 ovarian = test system: SK-OV-3 ovarian
# HOP-62 NSCLC = test system: HOP-62 NSCLC
# NCI-H23 lung = test system: NCI-H23 lung
# SF-268 CNS = test system: SF-268 CNS
# SN12C renal = test system: SN12C renal
# BT-549 breast = test system: BT-549 breast
# NCI-H522 lung = test system: NCI-H522 lung
# SNB-19 CNS = test system: SNB-19 CNS
# MDA-MB-435 = test system: MDA-MB-435
# OVCAR-4 ovarian = test system: OVCAR-4 ovarian
# DU-145 prostate = test system: DU-145 prostate
# MOLT-4 leukemia = test system: MOLT-4 leukemia
# CAKI-1 renal = test system: CAKI-1 renal
# MCF7 breast = test system: MCF7 breast
# HOP-92 NSCLC = test system: HOP-92 NSCLC
# K-562 leukemia = test system: K-562 leukemia
# A549 NSCLC = test system: A549 NSCLC
# SK-MEL-5 melanoma = test system: SK-MEL-5 melanoma
# HCT-15 colon = test system: HCT-15 colon
# 786-0 renal = test system: 786-0 renal
# UO-31 renal = test system: UO-31 renal
# HL-60(TB) leukemia = test system: HL-60(TB) leukemia
# NCI-H226 lung = test system: NCI-H226 lung
# A498 renal = test system: A498 renal
# PC-3 prostate = test system: PC-3 prostate
# OVCAR-3 ovarian = test system: OVCAR-3 ovarian
# EKVX NSCLC = test system: EKVX NSCLC
# CCRF-CEM leukemia = test system: CCRF-CEM leukemia
# HCC-2998 colon = test system: HCC-2998 colon
# UACC-62 melanoma = test system: UACC-62 melanoma
# SR leukemia = test system: SR leukemia
# RXF 393 renal = test system: RXF 393 renal
# TK-10 renal = test system: TK-10 renal
# LOX IMVI melanoma = test system: LOX IMVI melanoma
# HS 578T breast = test system: HS 578T breast
# SNB-75 CNS = test system: SNB-75 CNS
# HT29 colon = test system: HT29 colon
# SW-620 colon = test system: SW-620 colon
# HCT-116 colon = test system: HCT-116 colon
# SF-295 CNS = test system: SF-295 CNS
# COLO 205 colon = test system: COLO 205 colon
# ACHN renal = test system: ACHN renal
compound,measurement,setting,value
C[n+]1c2ccccc2c(Nc2ccc(N3CCCCC3)cc2)c2[nH]c3ccccc3c21,GI50,KM12 colon,281 nM
same,TGI,KM12 colon,958 nM
same,GI50,UACC-257 melanoma,417 nM
same,TGI,UACC-257 melanoma,1070 nM
same,GI50,U251 CNS,205 nM
same,TGI,U251 CNS,670 nM
same,GI50,M14 melanoma,346 nM
same,TGI,M14 melanoma,1470 nM
same,GI50,OVCAR-5 ovarian,658 nM
same,TGI,OVCAR-5 ovarian,2090 nM
same,GI50,MALME-3M melanoma,340 nM
same,TGI,MALME-3M melanoma,1530 nM
same,GI50,RPMI-8226 leukemia,81 nM
same,TGI,RPMI-8226 leukemia,262 nM
same,GI50,MDA-MB-231 breast,327 nM
same,TGI,MDA-MB-231 breast,1700 nM
same,GI50,SF-539 CNS,617 nM
same,TGI,SF-539 CNS,1900 nM
same,GI50,SK-MEL-28 melanoma,418 nM
same,TGI,SK-MEL-28 melanoma,1360 nM
same,GI50,NCI-H460 lung,152 nM
same,TGI,NCI-H460 lung,480 nM
same,GI50,IGROV1 ovarian,229 nM
same,TGI,IGROV1 ovarian,1180 nM
same,GI50,SK-OV-3 ovarian,515 nM
same,TGI,SK-OV-3 ovarian,1850 nM
same,GI50,HOP-62 NSCLC,456 nM
same,TGI,HOP-62 NSCLC,1810 nM
same,GI50,NCI-H23 lung,349 nM
same,TGI,NCI-H23 lung,1680 nM
same,GI50,SF-268 CNS,460 nM
same,TGI,SF-268 CNS,1620 nM
same,GI50,SN12C renal,212 nM
same,TGI,SN12C renal,1240 nM
same,GI50,BT-549 breast,1160 nM
same,TGI,BT-549 breast,2450 nM
same,TGI,NCI-H522 lung,90.8 nM
same,GI50,SNB-19 CNS,427 nM
same,TGI,SNB-19 CNS,1760 nM
same,GI50,MDA-MB-435,442 nM
same,TGI,MDA-MB-435,1650 nM
same,GI50,OVCAR-4 ovarian,326 nM
same,TGI,OVCAR-4 ovarian,1230 nM
same,GI50,DU-145 prostate,272 nM
same,TGI,DU-145 prostate,802 nM
same,GI50,MOLT-4 leukemia,53.6 nM
same,TGI,MOLT-4 leukemia,1180 nM
same,GI50,CAKI-1 renal,114 nM
same,TGI,CAKI-1 renal,1060 nM
same,GI50,MCF7 breast,152 nM
same,TGI,MCF7 breast,524 nM
same,GI50,HOP-92 NSCLC,264 nM
same,TGI,HOP-92 NSCLC,1200 nM
same,GI50,K-562 leukemia,155 nM
same,TGI,K-562 leukemia,353 nM
same,GI50,A549 NSCLC,166 nM
same,TGI,A549 NSCLC,549 nM
same,GI50,SK-MEL-5 melanoma,333 nM
same,TGI,SK-MEL-5 melanoma,1460 nM
same,GI50,HCT-15 colon,154 nM
same,TGI,HCT-15 colon,324 nM
same,GI50,786-0 renal,456 nM
same,TGI,786-0 renal,1690 nM
same,GI50,UO-31 renal,144 nM
same,TGI,UO-31 renal,833 nM
same,GI50,HL-60(TB) leukemia,28.2 nM
same,TGI,HL-60(TB) leukemia,192 nM
same,GI50,NCI-H226 lung,324 nM
same,TGI,NCI-H226 lung,1800 nM
same,GI50,A498 renal,234 nM
same,TGI,A498 renal,843 nM
same,GI50,PC-3 prostate,154 nM
same,TGI,PC-3 prostate,416 nM
same,GI50,OVCAR-3 ovarian,185 nM
same,TGI,OVCAR-3 ovarian,368 nM
same,GI50,EKVX NSCLC,459 nM
same,TGI,EKVX NSCLC,1930 nM
same,GI50,CCRF-CEM leukemia,83.2 nM
same,TGI,CCRF-CEM leukemia,312 nM
same,GI50,HCC-2998 colon,185 nM
same,TGI,HCC-2998 colon,619 nM
same,GI50,UACC-62 melanoma,194 nM
same,TGI,UACC-62 melanoma,861 nM
same,GI50,SR leukemia,3790 nM
same,TGI,SR leukemia,> 100000 nM
same,GI50,RXF 393 renal,174 nM
same,TGI,RXF 393 renal,347 nM
same,GI50,TK-10 renal,1230 nM
same,TGI,TK-10 renal,2600 nM
same,GI50,LOX IMVI melanoma,144 nM
same,TGI,LOX IMVI melanoma,340 nM
same,GI50,HS 578T breast,231 nM
same,TGI,HS 578T breast,705 nM
same,GI50,SNB-75 CNS,522 nM
same,TGI,SNB-75 CNS,1910 nM
same,GI50,HT29 colon,191 nM
same,TGI,HT29 colon,656 nM
same,GI50,SW-620 colon,184 nM
same,TGI,SW-620 colon,726 nM
same,GI50,HCT-116 colon,132 nM
same,TGI,HCT-116 colon,361 nM
same,GI50,SF-295 CNS,379 nM
same,TGI,SF-295 CNS,1550 nM
same,GI50,COLO 205 colon,140 nM
same,TGI,COLO 205 colon,344 nM
same,GI50,ACHN renal,223 nM
same,TGI,ACHN renal,1010 nM
